According to the NIST ThermoML archive (doi:10.1016/j.fluid.2011.06.007):
± gives the expanded uncertainty stated by the source.

Assay: xn = mol fraction of the nth substance listed
Details: Liquid; for mass density: 298.15 K, 101.3 kPa, Vibrating tube method; for interfacial tension: 303.15 K, maximum differential bubble pressure

## CCC(C)(C)OC [2-methoxy-2-methylbutane] + CCCCCC
x2 = 0
  mass density: 765.8 ± 0.14 kg/m3
  interfacial tension: 22 ± 0.2 mN/m
x2 = 0.038
  mass density: 761.49 ± 0.27 kg/m3
x2 = 0.092
  mass density: 755.29 ± 0.27 kg/m3
x2 = 0.145
  mass density: 749.34 ± 0.27 kg/m3
x2 = 0.194
  mass density: 743.82 ± 0.27 kg/m3
x2 = 0.247
  mass density: 737.76 ± 0.27 kg/m3
x2 = 0.346
  mass density: 726.73 ± 0.27 kg/m3
x2 = 0.443
  mass density: 715.93 ± 0.27 kg/m3
x2 = 0.497
  mass density: 709.95 ± 0.27 kg/m3
x2 = 0.552
  mass density: 703.83 ± 0.27 kg/m3
x2 = 0.597
  mass density: 698.92 ± 0.27 kg/m3
x2 = 0.644
  mass density: 693.78 ± 0.27 kg/m3
x2 = 0.696
  mass density: 688.15 ± 0.28 kg/m3
x2 = 0.745
  mass density: 682.72 ± 0.28 kg/m3
x2 = 0.795
  mass density: 677.33 ± 0.28 kg/m3
x2 = 0.852
  mass density: 671.14 ± 0.28 kg/m3
x2 = 0.901
  mass density: 665.86 ± 0.28 kg/m3
x2 = 0.952
  mass density: 660.3 ± 0.28 kg/m3
x2 = 0.051
  interfacial tension: 21.6 ± 0.2 mN/m
x2 = 0.1
  interfacial tension: 21.06 ± 0.2 mN/m
x2 = 0.209
  interfacial tension: 20.64 ± 0.2 mN/m
x2 = 0.305
  interfacial tension: 20.12 ± 0.2 mN/m
x2 = 0.399
  interfacial tension: 19.8 ± 0.2 mN/m
x2 = 0.506
  interfacial tension: 19.12 ± 0.2 mN/m
x2 = 0.611
  interfacial tension: 18.71 ± 0.2 mN/m
x2 = 0.714
  interfacial tension: 18.34 ± 0.2 mN/m
x2 = 0.813
  interfacial tension: 18.02 ± 0.2 mN/m
x2 = 0.914
  interfacial tension: 17.66 ± 0.2 mN/m
x2 = 0.96
  interfacial tension: 17.55 ± 0.2 mN/m

## CCCCCC [hexane] + CCC(C)(C)OC
x1 = 1
  mass density: 655.19 ± 0.18 kg/m3
  interfacial tension: 17.4 ± 0.2 mN/m
